Test results reported in ChEMBL document CHEMBL5608248, “Exploring the Therapeutic Potential of Entheogens in Postoperative Cognitive Decline and Psychological Resilience” (ACS Med Chem Lett, 2024).

Target: 5-hydroxytryptamine receptor 2A (Homo sapiens) (UniProt P28223)
Assay: Agonist activity at 5-HT2A (unknown origin) expressed in HEK293 cells assessed as increase in calcium influx by measuring maximal efficacy incubated for 50 mins by Fluo-4 dye based FLIPR assay relative to control
Format: functional, cell-based
Details: filed as agonist

Chain of 5-hydroxytryptamine receptor 2A (Homo sapiens) (P28223 whole entry): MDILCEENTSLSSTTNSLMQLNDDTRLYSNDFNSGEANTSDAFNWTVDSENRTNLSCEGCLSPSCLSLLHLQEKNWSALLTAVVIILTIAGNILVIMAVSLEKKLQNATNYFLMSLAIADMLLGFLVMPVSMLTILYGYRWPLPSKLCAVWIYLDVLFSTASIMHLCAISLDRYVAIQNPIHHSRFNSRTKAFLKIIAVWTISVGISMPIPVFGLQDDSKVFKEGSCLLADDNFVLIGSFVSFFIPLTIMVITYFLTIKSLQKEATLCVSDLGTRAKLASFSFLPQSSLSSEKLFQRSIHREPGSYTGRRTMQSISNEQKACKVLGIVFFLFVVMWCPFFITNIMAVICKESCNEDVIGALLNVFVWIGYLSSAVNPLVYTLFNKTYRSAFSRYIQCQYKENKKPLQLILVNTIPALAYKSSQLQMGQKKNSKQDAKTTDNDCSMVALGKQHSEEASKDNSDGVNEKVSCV

Row | Compound | Emax
1 | COc1ccc2cccc(CCN(C)C)c2c1 | 79%
2 | CCN(C)CCc1cccc2ccc(OC)cc12 | 63%
3 | COc1cccc(CNCCc2cccc3ccc(OC)cc23)c1 | 84%
4 | CC(C)N(C)CCc1cccc2cccc(O)c12 | 79%
5 | CN(C)CCc1cccc2cccc(O)c12 | 73%
6 | CN(CCc1cccc2cccc(O)c12)C1CC1 | 64%
7 | CCN(C)CCc1cccc2cccc(O)c12 | 68%
